Data as given in US6358885B1, “Substituted phenylheterocyclic herbicides” (Mississippi State University, priority 1992, dated 2002).

Key:
[1] = test system: Japonica rice; test: Test E paddy water application plant response rating 0 to 100; type: in vivo, oryza sativa; settings: Flood, 0 to 100 scale, approx. 21 days
Source text: (§1) Plastic pots were partially filled with silt loam soil. […] At testing, the water level for all plantings was raised to 2 cm above the soil surface. Chemical treatments were formulated in a non-phytotoxic solvent and applied directly to the paddy water. Treated plants and controls were maintained in a greenhouse for approximately 21 days, after which all species were compared to controls and visually evaluated. […] A dash (-) response means no test result.

[2] = test system: barnyardgrass; test: as above; type: in vivo, Echinochloa crus-galli; settings: Flood, 0 to 100 scale, approx. 21 days
Source text: as §1

[3] = test system: winter barley; test: Test F preemergence/postemergence greenhouse plant response rating 0 to 100; type: in vivo, Hordeum vulgare cv. ‘Igri’; settings: POSTEMERGENCE, 0 to 100 scale
Source text: (§2) Compounds evaluated in this test were formulated in a non-phytoxic solvent and applied to the soil surface before plant seedlings emerged (preemergence application) and to plants that were in the one-to-four leaf stage (postemergence application). A sandy loam soil was used for the preemergence test while a mixture of sandy loam soil and greenhouse potting mix in a 60:40 ratio was used for the postemergence test. Test compounds were applied within approximately one day after planting seeds for the preemergence test. Plantings of these crops and weed species were adjusted to produce plants of appropriate size for the postemergence test. All plant species were grown using normal greenhouse practices. Crop and weed species include winter barley (Hordeum vulgare cv. ‘Igri’), blackgrass (Alopecurus myosuroides), chickweed (Stellaria media), downy brome (Bromus tectorum), field violet (Viola arvensis), galium (Galium aparine), green foxtail (Setaria viridis), kochia (Kochia scoparia), lambsquarters (Chenopodium album), speedwell (Veronica persica), rape (Brassica napus), ryegrass (Lolium multiflorum), sugar beet (Beta vulgaris cv. ‘USl’), sunflower (Helianthus annuus cv. ‘Russian Giant’), spring wheat (Triticum aestivum cv. ‘ERA’), winter wheat (Triticum aestivum cv. ‘Talent’), wild buckwheat (Polygonum convolvulus), wild mustard (Sinapis arvensis), wild oat (Avena fatua), and wild radish (Raphanus raphanistrum). Blackgrass, galium and wild oat were treated at two growth stages. […] Treated plants and untreated controls were maintained in a greenhouse for approximately 21 to 28 days, after which all treated plants were compared to untreated controls and visually evaluated. […] A dash response (-) means no test result.

[4] = test system: blackgrass; test: as above; type: in vivo, Alopecurus myosuroides; settings: POSTEMERGENCE, 0 to 100 scale; for Blackgrass (1) plant response rating: stage (1) two to three leaves; for Blackgrass (2) plant response rating: stage (2) approximately four leaves or initial tillering
Source text: as §2

[5] = test system: lambsquarters; test: as above; type: in vivo, Chenopodium album; settings: POSTEMERGENCE, 0 to 100 scale
Source text: as §2

[6] = test system: speedwell; test: as above; type: in vivo, Veronica persica; settings: POSTEMERGENCE, 0 to 100 scale
Source text: as §2

[7] = test system: spring wheat; test: as above; type: in vivo, Triticum aestivum cv. ‘ERA’; settings: POSTEMERGENCE, 0 to 100 scale
Source text: as §2

[8] = test system: wild radish; test: as above; type: in vivo, Raphanus raphanistrum; settings: POSTEMERGENCE, 0 to 100 scale
Source text: as §2

[9] = test system: Japonica rice; test: Test D paddy water application plant response rating 0 to 100; type: in vivo, Oryza sativa; settings: 0 to 100 scale, approx. 21 days
Source text: (§3) Plastic pots were partially filled with silt loam soil. The soil was then saturated with water. […] After planting, water levels were raised to 3 cm above the soil surface and maintained at this level throughout the test. Chemical treatments were formulated in a non-phytotoxic solvent and applied directly to the paddy water. Treated plants and controls were maintained in a greenhouse for approximately 21 days, after which all species were compared to controls and visually evaluated. […] A dash (-) response means no test result.

[10] = test system: barnyardgrass; test: as above; type: in vivo, Echinochloa crus-galli; settings: 0 to 100 scale, approx. 21 days
Source text: as §3

[11] = test system: duck salad; test: as above; type: in vivo, Heteranthera limosa; settings: 0 to 100 scale, approx. 21 days
Source text: as §3

[12] = test system: umbrella sedge; test: as above; type: in vivo, Cyperus difformis; settings: 0 to 100 scale, approx. 21 days
Source text: as §3

[13] = test system: arrowhead; test: as above; type: in vivo, Sagittaria spp.; settings: 0 to 100 scale, approx. 21 days
Source text: as §3

[14] = test system: waterchestnut; test: as above; type: in vivo, Eleocharis spp.; settings: 0 to 100 scale, approx. 21 days
Source text: as §3

C#CC(C)N1C(=O)COc2cc(F)c(-c3nn4c(c3Cl)CCCC4)cc21 (stereo not drawn) [Compound 50]
70: Wild radish plant response rating ([8]; Rate 125 g/ha)
25: Barnyardgrass 2 plant response rating ([2]; Rate 32 g/ha)
50: Japonica 1 plant response rating ([1]; Rate 64 g/ha) | Winter Barley plant response rating ([3]; Rate 125 g/ha) | Lambsquarters plant response rating ([5]; Rate 32 g/ha) | Wild radish plant response rating ([8]; Rate 16 g/ha) | Wild radish plant response rating ([8]; Rate 32 g/ha)
35: Japonica 2 plant response rating ([1]; Rate 64 g/ha) | Barnyardgrass 2 plant response rating ([2]; Rate 64 g/ha) | Barnyardgrass 3 plant response rating ([2]; Rate 64 g/ha)
45: Japonica 2 plant response rating ([1]; Rate 125 g/ha)
100: Lambsquarters plant response rating ([5]; Rate 64 g/ha) | Lambsquarters plant response rating ([5]; Rate 125 g/ha) | Persn Speedwell plant response rating ([6]; Rate 16 g/ha) | Persn Speedwell plant response rating ([6]; Rate 32 g/ha) | Persn Speedwell plant response rating ([6]; Rate 64 g/ha) | Persn Speedwell plant response rating ([6]; Rate 125 g/ha)
15: Japonica 2 plant response rating ([1]; Rate 8 g/ha) | Barnyardgrass 2 plant response rating ([2]; Rate 8 g/ha) | Barnyardgrass 2 plant response rating ([2]; Rate 16 g/ha) | Barnyardgrass 3 plant response rating ([2]; Rate 16 g/ha)
40: Japonica 1 plant response rating ([1]; Rate 32 g/ha) | Blackgrass (1) plant response rating ([4]; Rate 125 g/ha)
55: Barnyardgrass 2 plant response rating ([2]; Rate 125 g/ha) | Wild radish plant response rating ([8]; Rate 64 g/ha)
30: Japonica 2 plant response rating ([1]; Rate 32 g/ha) | Lambsquarters plant response rating ([5]; Rate 16 g/ha)
10: Barnyardgrass 3 plant response rating ([2]; Rate 8 g/ha) | Wheat (Spring) plant response rating ([7]; Rate 125 g/ha)
60: Barnyardgrass 3 plant response rating ([2]; Rate 125 g/ha)
75: Japonica 1 plant response rating ([1]; Rate 125 g/ha)
20: Japonica 1 plant response rating ([1]; Rate 16 g/ha) | Japonica 2 plant response rating ([1]; Rate 16 g/ha) | Barnyardgrass 3 plant response rating ([2]; Rate 32 g/ha) | Blackgrass (2) plant response rating ([4]; Rate 125 g/ha)
0: Japonica 1 plant response rating ([1]; Rate 8 g/ha) | Winter Barley plant response rating ([3]; Rate 16 g/ha) | Winter Barley plant response rating ([3]; Rate 32 g/ha) | Winter Barley plant response rating ([3]; Rate 64 g/ha) | Blackgrass (1) plant response rating ([4]; Rate 16 g/ha) | Blackgrass (2) plant response rating ([4]; Rate 16 g/ha) | Blackgrass (1) plant response rating ([4]; Rate 32 g/ha) | Blackgrass (2) plant response rating ([4]; Rate 32 g/ha) | Blackgrass (1) plant response rating ([4]; Rate 64 g/ha) | Blackgrass (2) plant response rating ([4]; Rate 64 g/ha) | Wheat (Spring) plant response rating ([7]; Rate 16 g/ha) | Wheat (Spring) plant response rating ([7]; Rate 32 g/ha) | Wheat (Spring) plant response rating ([7]; Rate 64 g/ha)

C#CC(C)Oc1cc(-c2nn3c(c2Cl)CCCC3)c(F)cc1Cl (stereo not drawn) [Compound 36]
70: Umbrella sedge plant response rating ([12]; Rate 32 g/ha)
100: Barnyardgrass 2 plant response rating ([10]; Rate 32 g/ha) | Barnyardgrass 2 plant response rating ([10]; Rate 64 g/ha) | Barnyardgrass 2 plant response rating ([2]; Rate 125 g/ha) | Persn Speedwell plant response rating ([6]; Rate 4 g/ha) | Persn Speedwell plant response rating ([6]; Rate 8 g/ha) | Persn Speedwell plant response rating ([6]; Rate 16 g/ha) | Persn Speedwell plant response rating ([6]; Rate 32 g/ha) | Wild radish plant response rating ([8]; Rate 4 g/ha) | Wild radish plant response rating ([8]; Rate 8 g/ha) | Wild radish plant response rating ([8]; Rate 16 g/ha) | Wild radish plant response rating ([8]; Rate 32 g/ha)
75: Barnyardgrass 3 plant response rating ([2]; Rate 125 g/ha)
35: Barnyardgrass 3 plant response rating ([2]; Rate 16 g/ha)
10: Japonica rice plant response rating ([9]; Rate 4 g/ha) | Japonica rice plant response rating ([9]; Rate 8 g/ha) | Waterchestnut plant response rating ([14]; Rate 4 g/ha) | Waterchestnut plant response rating ([14]; Rate 8 g/ha) | Japonica 2 plant response rating ([1]; Rate 8 g/ha) | Blackgrass (2) plant response rating ([4]; Rate 16 g/ha)
40: Barnyardgrass 2 plant response rating ([2]; Rate 16 g/ha) | Barnyardgrass 3 plant response rating ([2]; Rate 32 g/ha)
25: Japonica rice plant response rating ([9]; Rate 64 g/ha) | Japonica 1 plant response rating ([1]; Rate 64 g/ha) | Japonica 1 plant response rating ([1]; Rate 125 g/ha) | Winter Barley plant response rating ([3]; Rate 32 g/ha)
0: Duck salad plant response rating ([11]; Rate 4 g/ha) | Duck salad plant response rating ([11]; Rate 8 g/ha) | Umbrella sedge plant response rating ([12]; Rate 4 g/ha) | Umbrella sedge plant response rating ([12]; Rate 8 g/ha) | Arrowhead plant response rating ([13]; Rate 4 g/ha) | Arrowhead plant response rating ([13]; Rate 8 g/ha) | Arrowhead plant response rating ([13]; Rate 16 g/ha) | Arrowhead plant response rating ([13]; Rate 32 g/ha) | Arrowhead plant response rating ([13]; Rate 64 g/ha) | Japonica 2 plant response rating ([1]; Rate 16 g/ha) | Blackgrass (1) plant response rating ([4]; Rate 4 g/ha) | Blackgrass (2) plant response rating ([4]; Rate 4 g/ha) | Blackgrass (1) plant response rating ([4]; Rate 8 g/ha) | Blackgrass (2) plant response rating ([4]; Rate 8 g/ha) | Blackgrass (1) plant response rating ([4]; Rate 16 g/ha)
50: Barnyardgrass 3 plant response rating ([2]; Rate 64 g/ha) | Lambsquarters plant response rating ([5]; Rate 4 g/ha) | Lambsquarters plant response rating ([5]; Rate 8 g/ha)
20: Japonica rice plant response rating ([9]; Rate 32 g/ha) | Duck salad plant response rating ([11]; Rate 16 g/ha) | Waterchestnut plant response rating ([14]; Rate 16 g/ha) | Waterchestnut plant response rating ([14]; Rate 32 g/ha) | Waterchestnut plant response rating ([14]; Rate 64 g/ha) | Japonica 1 plant response rating ([1]; Rate 16 g/ha) | Japonica 1 plant response rating ([1]; Rate 32 g/ha) | Japonica 2 plant response rating ([1]; Rate 125 g/ha) | Winter Barley plant response rating ([3]; Rate 4 g/ha) | Winter Barley plant response rating ([3]; Rate 8 g/ha) | Winter Barley plant response rating ([3]; Rate 16 g/ha) | Blackgrass (2) plant response rating ([4]; Rate 32 g/ha) | Wheat (Spring) plant response rating ([7]; Rate 32 g/ha)
80: Barnyardgrass 2 plant response rating ([10]; Rate 16 g/ha) | Umbrella sedge plant response rating ([12]; Rate 64 g/ha)
15: Japonica rice plant response rating ([9]; Rate 16 g/ha) | Japonica 1 plant response rating ([1]; Rate 8 g/ha) | Japonica 2 plant response rating ([1]; Rate 32 g/ha) | Japonica 2 plant response rating ([1]; Rate 64 g/ha) | Wheat (Spring) plant response rating ([7]; Rate 4 g/ha) | Wheat (Spring) plant response rating ([7]; Rate 8 g/ha) | Wheat (Spring) plant response rating ([7]; Rate 16 g/ha)
60: Duck salad plant response rating ([11]; Rate 64 g/ha) | Umbrella sedge plant response rating ([12]; Rate 16 g/ha) | Lambsquarters plant response rating ([5]; Rate 16 g/ha) | Lambsquarters plant response rating ([5]; Rate 32 g/ha)
65: Barnyardgrass 2 plant response rating ([10]; Rate 8 g/ha) | Barnyardgrass 2 plant response rating ([2]; Rate 64 g/ha)
5: Blackgrass (1) plant response rating ([4]; Rate 32 g/ha)
55: Barnyardgrass 2 plant response rating ([2]; Rate 32 g/ha)
30: Barnyardgrass 2 plant response rating ([10]; Rate 4 g/ha) | Duck salad plant response rating ([11]; Rate 32 g/ha) | Barnyardgrass 2 plant response rating ([2]; Rate 8 g/ha) | Barnyardgrass 3 plant response rating ([2]; Rate 8 g/ha)
